Measurements reported in ChEMBL document CHEMBL1128895, “Synthesis and pharmacological characterization of A-80426: A putative novel antidepressant combining -2 antagonism with 5-HT uptake inhibition” (Bioorg Med Chem Lett, 1995).

Legend:
Rattus norvegicus [1] = organism: Rattus norvegicus; assay: Evaluated for inhibition of dopamine, biogenic amine reuptake in synaptosomal rat brain preparations; format: functional
[2] = target: T1, Adrenergic receptor alpha-1 (Rattus norvegicus, UniProt P15823+P23944+P43140); assay: Evaluated for affinity at Alpha-1 adrenergic receptor of rat brain using [3H]prazosin as radioligand in radioligand binding assay
T1 sequence (P15823 whole entry): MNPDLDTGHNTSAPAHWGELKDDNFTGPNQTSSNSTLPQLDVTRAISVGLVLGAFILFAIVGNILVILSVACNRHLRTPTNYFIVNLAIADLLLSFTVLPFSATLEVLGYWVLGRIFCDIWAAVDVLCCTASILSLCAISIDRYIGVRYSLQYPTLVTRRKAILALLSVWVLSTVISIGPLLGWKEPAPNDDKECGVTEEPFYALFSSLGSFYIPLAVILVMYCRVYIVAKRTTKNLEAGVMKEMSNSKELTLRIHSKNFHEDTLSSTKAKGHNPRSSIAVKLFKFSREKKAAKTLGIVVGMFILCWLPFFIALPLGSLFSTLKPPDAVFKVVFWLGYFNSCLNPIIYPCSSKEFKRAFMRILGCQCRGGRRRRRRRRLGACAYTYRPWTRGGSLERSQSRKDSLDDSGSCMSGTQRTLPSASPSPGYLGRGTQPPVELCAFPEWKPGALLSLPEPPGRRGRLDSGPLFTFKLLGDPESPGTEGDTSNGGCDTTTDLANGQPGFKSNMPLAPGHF
T1 sequence (P23944 whole entry): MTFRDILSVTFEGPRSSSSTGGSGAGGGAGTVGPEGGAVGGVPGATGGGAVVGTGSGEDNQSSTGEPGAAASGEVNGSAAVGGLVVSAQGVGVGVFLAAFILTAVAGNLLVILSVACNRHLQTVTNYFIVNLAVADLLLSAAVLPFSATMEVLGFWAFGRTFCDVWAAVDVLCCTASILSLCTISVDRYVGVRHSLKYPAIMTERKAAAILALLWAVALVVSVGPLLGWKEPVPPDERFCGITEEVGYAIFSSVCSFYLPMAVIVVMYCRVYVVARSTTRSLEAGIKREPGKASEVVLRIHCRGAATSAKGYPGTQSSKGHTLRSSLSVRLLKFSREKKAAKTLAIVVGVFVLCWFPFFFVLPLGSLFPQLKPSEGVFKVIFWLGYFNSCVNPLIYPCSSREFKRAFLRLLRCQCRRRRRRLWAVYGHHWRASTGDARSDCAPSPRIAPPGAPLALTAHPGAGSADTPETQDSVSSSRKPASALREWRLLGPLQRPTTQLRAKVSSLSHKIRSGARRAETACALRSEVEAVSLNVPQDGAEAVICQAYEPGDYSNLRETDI
T1 sequence (P43140 whole entry): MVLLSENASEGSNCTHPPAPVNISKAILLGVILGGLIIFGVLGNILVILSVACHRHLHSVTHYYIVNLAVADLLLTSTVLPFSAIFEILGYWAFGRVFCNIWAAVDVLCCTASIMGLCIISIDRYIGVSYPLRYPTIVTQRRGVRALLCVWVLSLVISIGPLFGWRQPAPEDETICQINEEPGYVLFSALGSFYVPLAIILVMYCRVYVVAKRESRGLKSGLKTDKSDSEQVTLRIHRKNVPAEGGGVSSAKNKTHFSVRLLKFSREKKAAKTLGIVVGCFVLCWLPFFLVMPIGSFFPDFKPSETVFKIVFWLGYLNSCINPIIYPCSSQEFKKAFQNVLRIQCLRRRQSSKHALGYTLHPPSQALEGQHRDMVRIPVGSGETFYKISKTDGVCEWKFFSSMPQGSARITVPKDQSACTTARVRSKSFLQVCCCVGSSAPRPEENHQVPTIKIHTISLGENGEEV

[3] = target: T2, Adrenergic receptor alpha-2 (Rattus norvegicus, UniProt P22086+P19328+P22909); assay: Evaluated for affinity at Alpha-2 adrenergic receptor of rat brain using [3H]rauwolscine as radioligand in radioligand binding assay
T2 sequence (P22086 whole entry): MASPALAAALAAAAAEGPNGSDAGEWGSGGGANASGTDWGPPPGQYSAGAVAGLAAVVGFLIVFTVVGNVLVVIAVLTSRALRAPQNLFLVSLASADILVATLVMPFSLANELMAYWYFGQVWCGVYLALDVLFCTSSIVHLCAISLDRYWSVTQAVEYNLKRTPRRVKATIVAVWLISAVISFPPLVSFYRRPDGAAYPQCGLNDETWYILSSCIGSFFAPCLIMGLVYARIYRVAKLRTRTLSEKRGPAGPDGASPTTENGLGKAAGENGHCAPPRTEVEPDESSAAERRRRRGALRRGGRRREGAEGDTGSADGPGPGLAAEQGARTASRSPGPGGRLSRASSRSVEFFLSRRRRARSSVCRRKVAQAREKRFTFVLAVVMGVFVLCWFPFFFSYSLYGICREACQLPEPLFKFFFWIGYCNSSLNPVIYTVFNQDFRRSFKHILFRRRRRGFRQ
T2 sequence (P19328 whole entry): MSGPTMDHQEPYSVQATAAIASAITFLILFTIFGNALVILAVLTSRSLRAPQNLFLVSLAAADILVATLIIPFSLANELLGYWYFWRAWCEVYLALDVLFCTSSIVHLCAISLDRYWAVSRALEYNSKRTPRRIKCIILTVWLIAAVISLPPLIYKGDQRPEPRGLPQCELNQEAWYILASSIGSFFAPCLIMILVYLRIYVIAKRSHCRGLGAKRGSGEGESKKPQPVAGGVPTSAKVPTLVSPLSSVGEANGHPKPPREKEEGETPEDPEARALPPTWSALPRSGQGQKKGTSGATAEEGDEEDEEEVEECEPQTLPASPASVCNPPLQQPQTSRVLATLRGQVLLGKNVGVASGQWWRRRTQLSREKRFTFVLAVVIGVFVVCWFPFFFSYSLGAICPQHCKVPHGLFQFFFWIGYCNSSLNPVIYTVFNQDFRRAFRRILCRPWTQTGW
T2 sequence (P22909 whole entry): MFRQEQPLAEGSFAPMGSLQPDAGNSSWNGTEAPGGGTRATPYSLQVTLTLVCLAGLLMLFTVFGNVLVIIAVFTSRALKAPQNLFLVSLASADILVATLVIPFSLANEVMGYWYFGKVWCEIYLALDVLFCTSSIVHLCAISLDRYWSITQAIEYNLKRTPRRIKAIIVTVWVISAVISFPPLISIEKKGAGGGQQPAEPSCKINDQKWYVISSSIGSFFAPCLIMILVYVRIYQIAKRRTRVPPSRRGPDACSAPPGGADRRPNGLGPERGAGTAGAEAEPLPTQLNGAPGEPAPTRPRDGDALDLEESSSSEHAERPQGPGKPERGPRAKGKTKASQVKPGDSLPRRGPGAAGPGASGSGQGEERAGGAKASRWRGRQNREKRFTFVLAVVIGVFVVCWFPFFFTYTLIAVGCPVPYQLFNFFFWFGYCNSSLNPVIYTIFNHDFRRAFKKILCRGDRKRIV

Rattus norvegicus [4] = organism: Rattus norvegicus; assay: Evaluated for inhibition of norepinephrine, biogenic amine reuptake in synaptosomal rat brain preparations; format: functional
Rattus norvegicus [5] = organism: Rattus norvegicus; assay: Evaluated for inhibition of 5-Hydroxytryptamine, biogenic amine reuptake in synaptosomal rat brain preparations; format: functional
Rattus norvegicus [6] = organism: Rattus norvegicus; assay: […] reversal of passive avoidance deficit in olfactory bulbectomized rats; format: functional
Rattus norvegicus [7] = organism: Rattus norvegicus; assay: […] p-chloroamphetamine (PCA) induced hyperactivity in rats; format: functional
[8] = target: Beta-1 adrenergic receptor (Rattus norvegicus, UniProt P18090); assay: Compound was evaluated for its binding affinity to beta-1 receptor in rat brain using [3H]- DHA radioligand assay; format: tissue-based
Chain of Beta-1 adrenergic receptor (P18090 whole entry): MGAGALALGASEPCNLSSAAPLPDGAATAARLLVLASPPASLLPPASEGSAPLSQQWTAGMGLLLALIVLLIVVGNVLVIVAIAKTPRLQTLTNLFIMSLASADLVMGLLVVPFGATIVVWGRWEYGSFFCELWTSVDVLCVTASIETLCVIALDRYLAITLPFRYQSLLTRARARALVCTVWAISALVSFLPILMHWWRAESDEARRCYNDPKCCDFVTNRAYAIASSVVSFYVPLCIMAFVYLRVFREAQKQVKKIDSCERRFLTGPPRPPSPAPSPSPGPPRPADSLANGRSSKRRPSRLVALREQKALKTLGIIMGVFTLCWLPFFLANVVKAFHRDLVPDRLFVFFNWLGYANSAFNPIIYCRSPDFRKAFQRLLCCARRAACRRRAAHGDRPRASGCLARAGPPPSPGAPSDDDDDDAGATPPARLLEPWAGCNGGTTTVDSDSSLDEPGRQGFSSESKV

[9] = target: T2, Adrenergic receptor alpha-2; assay: Evaluated for affinity at Alpha-2 adrenergic receptor of rat cortex using [3H]rauwolscine as radioligand in radioligand binding assay
D(1A) dopamine receptor = D(1A) dopamine receptor (Rattus norvegicus, UniProt P18901); assay: Compound was evaluated for its binding affinity to Dopamine receptor D1 in rat striatum using [3H]- SCH-23390 radioligand assay; format: tissue-based
Chain of D(1A) dopamine receptor (P18901 whole entry): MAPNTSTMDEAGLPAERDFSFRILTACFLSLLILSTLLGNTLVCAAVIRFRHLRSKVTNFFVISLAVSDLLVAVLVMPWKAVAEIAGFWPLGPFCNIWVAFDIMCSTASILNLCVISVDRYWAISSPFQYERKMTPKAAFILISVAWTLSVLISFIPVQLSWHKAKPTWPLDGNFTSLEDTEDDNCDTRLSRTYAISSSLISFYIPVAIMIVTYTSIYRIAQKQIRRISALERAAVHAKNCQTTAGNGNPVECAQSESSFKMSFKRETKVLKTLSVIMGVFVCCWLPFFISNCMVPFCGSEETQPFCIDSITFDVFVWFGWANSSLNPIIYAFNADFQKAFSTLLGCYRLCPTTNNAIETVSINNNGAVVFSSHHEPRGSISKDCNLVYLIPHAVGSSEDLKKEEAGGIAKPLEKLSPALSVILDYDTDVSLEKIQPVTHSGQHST

[10] = target: Serotonin 1 (5-HT1) receptor (Rattus norvegicus, UniProt P28564+P30940+P19327+P28565); assay: Compound was evaluated for its binding affinity to 5-hydroxytryptamine 1 receptor in rat brain using [3H]HT radioligand assay; format: tissue-based
D(2) dopamine receptor = D(2) dopamine receptor (Rattus norvegicus, UniProt P61169); assay: Compound was evaluated for its binding affinity to Dopamine receptor D2 in rat brain using [3H]- spiroperidol radioligand assay; format: tissue-based
Chain of D(2) dopamine receptor (P61169 whole entry): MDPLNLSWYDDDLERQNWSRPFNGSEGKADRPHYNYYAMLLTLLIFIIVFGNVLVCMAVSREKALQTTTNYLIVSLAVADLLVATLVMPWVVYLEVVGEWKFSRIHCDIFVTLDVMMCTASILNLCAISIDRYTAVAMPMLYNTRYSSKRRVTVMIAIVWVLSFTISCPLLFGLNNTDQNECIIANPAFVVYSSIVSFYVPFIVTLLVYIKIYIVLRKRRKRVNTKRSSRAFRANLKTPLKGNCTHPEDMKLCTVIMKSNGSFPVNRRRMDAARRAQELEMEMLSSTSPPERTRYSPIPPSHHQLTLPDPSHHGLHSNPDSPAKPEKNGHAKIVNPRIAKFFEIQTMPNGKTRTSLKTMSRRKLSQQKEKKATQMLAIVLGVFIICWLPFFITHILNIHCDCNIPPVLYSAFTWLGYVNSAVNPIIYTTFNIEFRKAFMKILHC

[11] = target: Serotonin 2 (5-HT2) receptor (Rattus norvegicus, UniProt P30994+P08909+P14842); assay: Compound was evaluated for its binding affinity to 5-hydroxytryptamine 2 receptor in rat cortex using [3H]ketanserin radioligand assay

Compound: COc1cccc2c1CCC[C@@H]2CN(C)CCc1ccc2ccoc2c1
- IC50 (Rattus norvegicus [1]): 4.75 µM
- Ki [2]: 241 nM
- Ki [3]: 0.11 µM
- IC50 (Rattus norvegicus [4]): 476 nM

Compound: CNCCC(Oc1ccc(C(F)(F)F)cc1)c1ccccc1 (stereo unspecified) [FLUOXETINE]
- IC50 (Rattus norvegicus [1]): 16.2 µM
- IC50 (Rattus norvegicus [5]): 308 nM
- ED50 (Rattus norvegicus [6]): 12.1 mg/kg
- ED50 (Rattus norvegicus [7]): 11.7 mg/kg
- IC50 (Rattus norvegicus [4]): 3280 nM

Compound: COC(=O)[C@H]1[C@H]2C[C@H]3c4[nH]c5ccccc5c4CCN3C[C@H]2CC[C@@H]1O [RAUWOLSCINE]
- IC50 (Rattus norvegicus [1]): > 10 µM
- IC50 (Rattus norvegicus [4]): > 10000 nM

Compound: Fc1ccc([C@@H]2CCNC[C@H]2COc2ccc3c(c2)OCO3)cc1 [PAROXETINE]
- IC50 (Rattus norvegicus [1]): 7.62 µM
- Ki [2]: 5320 nM
- Ki [3]: 6.31 µM
- IC50 (Rattus norvegicus [4]): 160 nM

Compound: COc1cccc2c1CCC[C@H]2CN(C)CCc1ccc2ccoc2c1
- IC50 (Rattus norvegicus [1]): 2.94 µM
- Ki [8]: 836 nM
- Ki [9]: 2.01 nM
- Ki (D(1A) dopamine receptor): 744 nM
- Ki [10]: 2970 nM
- Ki [2]: 110 nM
- ED50 (Rattus norvegicus [6]): 7.1 mg/kg
- Ki (D(2) dopamine receptor): 52 nM
- Ki [11]: 144 nM
- ED50 (Rattus norvegicus [7]): 13.3 mg/kg
- IC50 (Rattus norvegicus [4]): 865 nM
